# According to ChEMBL document CHEMBL1150708, “Isolation and bioactivity of new tanshinones” (1987):
# What was measured:
# Type in all cases: functional
# [1] = Antiplatelet activity against platelet assessed as inhibition of collagen-induced platelet aggregation at 10 ug/ml by turbidimetry
# [2] = Antiplatelet activity against platelet assessed as inhibition of ADP-induced platelet aggregation at 10 ug/ml by turbidimetry
# [3] = Antiplatelet activity against platelet assessed as inhibition of collagen-induced platelet aggregation at 5 ug/ml by turbidimetry
# [4] = Antiplatelet activity against platelet assessed as inhibition of ADP-induced platelet aggregation at 50 ug/ml by turbidimetry
# [5] = Antiplatelet activity against platelet assessed as inhibition of collagen-induced platelet aggregation at 50 ug/ml by turbidimetry
SMILES,inhibition at 10 µg/mL [1],inhibition at 10 µg/mL [2],inhibition at 5 µg/mL [3],inhibition at 50 µg/mL [4],inhibition at 50 µg/mL [5]
Cc1coc2c1C(=O)c1ccc3c(c1C2=O)CCCC3(C)CO (stereo not given) [ISOTANSHINONE IIB],81%,40%,4%,–,–
CC(=O)Oc1ccccc1C(=O)O [ASPIRIN],–,–,–,74%,72%
